Experimental data taken from patent US20240368640A1, “METHODS OF PURIFYING CANNABINOIDS” (AMYRIS, INC., priority 2021, published 2024).
Entries after “also recorded” stand apart in the source; their conditions may differ.

Key:
[1] = Visual assessment of CBDA solubility in overlay oils; type: physicochemical; details: CBDA as hemp oil with 50% CBDA, target concentration greater than 50 g/L
Method: Visual appearances of solutions containing CBDA (as hemp oil with 50% CBDA) were assessed for JARCOL™ I-16, soybean oil, castor oil, ESTEREX™ A 51, sunflower oil, DRAKEOL® 19, and DURASYN® 164. A target CBD concentration of greater than 50 g/L was desired for this set of experiments. Upon visual inspection, it was determined that CBDA was soluble in JARCOL™ I-16, soybean oil, castor oil, ESTEREX™ A 51, and sunflower oil, but was insoluble in DRAKEOL® 19 and DURASYN® 164 at the target concentration. Insolubility was evidenced by the presence of precipitates in solutions of DRAKEOL® 19 or DURASYN® 164 (FIG. 9).

[2] = system: wild-type yeast (strain Y46850); assay: Growth of wild-type yeast in culture media containing an overlay oil (optical density); type: cell-based, S. cerevisiae
Method: The ability of yeast cells (S. cerevisiae) to grow normally in culture media containing an overlay oil was assessed. Wild-type yeast (strain Y46850) was cultured in the presence of soybean oil, sunflower oil, safflower oil, castor oil, or JARCOL™ I-16. Cell growth was measured by assessing the optical density (OD) of the yeast culture suspensions in three independent experiments (SF1, SF2, and SF3) (FIGS. 1-3).

[3] = Solubility of hexanoate in soybean oil by gas chromatography (GC-FID); details: oil or lipid
[4] = oil/hemp oil 10:1 v/v, visual inspection
[5] = oil/hemp oil 10:1 v/v, visual inspection (precipitates)

For `C=C(C)[C@@H]1CCC(C)=C[C@H]1c1c(O)cc(CCCCC)c(C(=O)O)c1O` [CBDA, cannabidiolic acid], the “Solubility of CBDA in JARCOL I-16” value [1, 4] was “soluble; also recorded: good solubility”, the “Solubility of CBDA in castor oil” value [1, 4] was “soluble; also recorded: good solubility” and the “Solubility of CBDA in soybean oil” value [1, 4] was “soluble; also recorded: good solubility”. The “Solubility of CBDA in DRAKEOL 19” value [1, 5] was “insoluble; also recorded: lower solubility”, the “Solubility of CBDA in DURASYN 164” value [1, 5] was “insoluble; also recorded: lower solubility” and the “Solubility of CBDA in ESTEREX A 51” value ([1]; visual inspection) was “soluble”. The “Solubility of CBDA in sunflower oil” value ([1]; visual inspection) was “soluble”.

In the case of `CCCCCCCCC(CO)CCCCCC` (centres unmarked) [JARCOL™ I-16], the “Cell growth (optical density) versus control (no oil)” value ([2]; flask experiment SF2, strain Y46850 (FIG. 2)) is reported as “not significantly different”, the “Cell growth (optical density) versus control (no oil)” value ([2]; flask experiment SF3, strain Y46850 (FIG. 3)) is reported as “not significantly different” and the “Cell growth (optical density) versus control (no oil)” value ([2]; wild-type yeast strain Y46850 cultured with overlay oil, three independent experiments SF1, SF2, SF3) is reported as “not significantly different”.

Molecule `CCCCCC(=O)O` [hexanoate] has a solubility [3] of no more than 185 mg/mL.
